Measured values as given in ChEMBL document CHEMBL4342406, “Revealing quinquennial anticancer journey of morpholine: A SAR based review” (Eur J Med Chem, 2019).
Values belong to the compound of their own block, whether it stands above or below them.

Columns and labels:
[1] = molecular target: Epidermal growth factor receptor (Homo sapiens, UniProt P00533, T790M); experiment: Inhibition of EGFR T790M mutant (unknown origin) incubated for 60 mins by ADP-Glo kinase assay
[2] = system: A549; experiment: Cytotoxicity against human A549 cells assessed as reduction in cell viability after 72 hrs by MTT assay; type: functional, cell-based; settings: A549, 72 h
[3] = system: HT-29; experiment: Cytotoxicity against human HT-29 cells assessed as reduction in cell viability after 72 hrs by MTT assay; type: functional, cell-based; settings: HT-29, 72 h
[4] = system: Lymphocyte; experiment: Cytotoxicity against human lymphocytes assessed as reduction in cell viability after 72 hrs by MTT assay; type: cell-based
[5] = system: MCF7; experiment: Antiproliferative activity in human MCF7 cells by MTT assay; type: functional, cell-based
[6] = system: A549; experiment: Antiproliferative activity in human A549 cells by MTT assay; type: functional, cell-based
[7] = system: BEL-7404 tumor cell line; experiment: Antiproliferative activity in human Bel7404 cells by MTT assay; type: functional, cell-based
[8] = system: QGY-7703; experiment: Antiproliferative activity in human QGY7703 cells after 72 hrs by MTS assay; type: functional, cell-based; settings: QGY-7703, 72 h
[9] = system: SMMC-7721; experiment: Antiproliferative activity in human SMMC7721 cells after 72 hrs by MTS assay; type: functional, cell-based; settings: SMMC-7721, 72 h
[10] = system: Bel-7402; experiment: Antiproliferative activity in human Bel7402 cells after 72 hrs by MTS assay; type: functional, cell-based; settings: Bel-7402, 72 h
[11] = system: MCF7; experiment: Cytotoxicity against human MCF7 cells assessed as reduction in cell viability incubated for 3 days by MTT assay; type: functional, cell-based; settings: MCF7, 72 h

Epidermal growth factor receptor, sequence (P00533 25-1210 T790M limits assumed): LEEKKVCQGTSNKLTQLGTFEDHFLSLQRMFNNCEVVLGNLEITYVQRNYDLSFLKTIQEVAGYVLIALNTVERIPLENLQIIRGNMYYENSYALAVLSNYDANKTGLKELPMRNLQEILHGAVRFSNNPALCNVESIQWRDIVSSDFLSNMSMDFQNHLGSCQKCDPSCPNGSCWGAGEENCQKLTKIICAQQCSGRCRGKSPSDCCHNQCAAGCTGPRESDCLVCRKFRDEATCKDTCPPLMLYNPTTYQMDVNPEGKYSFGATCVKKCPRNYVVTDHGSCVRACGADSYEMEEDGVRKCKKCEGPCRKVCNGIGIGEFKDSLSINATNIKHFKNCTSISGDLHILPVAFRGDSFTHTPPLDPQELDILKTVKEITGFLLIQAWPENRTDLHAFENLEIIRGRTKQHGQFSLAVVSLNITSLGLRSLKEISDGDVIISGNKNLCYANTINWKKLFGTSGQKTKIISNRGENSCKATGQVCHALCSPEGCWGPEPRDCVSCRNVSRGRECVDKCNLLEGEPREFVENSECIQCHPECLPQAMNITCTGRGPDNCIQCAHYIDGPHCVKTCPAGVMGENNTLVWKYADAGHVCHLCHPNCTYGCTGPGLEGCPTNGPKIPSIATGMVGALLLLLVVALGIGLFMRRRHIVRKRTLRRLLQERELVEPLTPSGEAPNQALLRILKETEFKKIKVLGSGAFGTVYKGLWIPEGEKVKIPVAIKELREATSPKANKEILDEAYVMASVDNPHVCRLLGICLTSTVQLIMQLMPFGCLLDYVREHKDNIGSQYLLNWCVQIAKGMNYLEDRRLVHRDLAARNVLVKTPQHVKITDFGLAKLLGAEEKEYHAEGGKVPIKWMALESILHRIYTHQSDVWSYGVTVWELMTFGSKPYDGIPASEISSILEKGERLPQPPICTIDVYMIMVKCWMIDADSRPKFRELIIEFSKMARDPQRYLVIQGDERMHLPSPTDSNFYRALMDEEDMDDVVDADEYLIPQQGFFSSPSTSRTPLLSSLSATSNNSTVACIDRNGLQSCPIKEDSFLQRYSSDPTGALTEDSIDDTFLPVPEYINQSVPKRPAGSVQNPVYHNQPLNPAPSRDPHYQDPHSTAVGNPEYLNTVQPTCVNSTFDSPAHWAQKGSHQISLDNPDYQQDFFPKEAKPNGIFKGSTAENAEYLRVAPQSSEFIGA

Compound: COc1ccc(Cn2cnc3c(cc(N4CCOCC4)c4ccccc43)c2=O)cc1
IC50 [2]: 134 µM | IC50 [3]: 4.12 µM | IC50 [4]: 175 µM

Compound: COc1c2ccoc2c(S(=O)(=O)N2CCOCC2)c2oc(C)c(C(C)=O)c(=O)c12
IC50 [11]: 0.125 µM

More lines, main results first:

IC50 [1]: 0.0043 µM
Compound: C=CC(=O)Nc1cccc(Nc2ncnc3cc(OC)c(OCCN4CCOCC4)cc23)c1

IC50 [5]: 13 µM | IC50 [6]: 11.7 µM | IC50 [7]: 25.8 µM
Compound: CCCCCCCCCC[C@H](O)COCCOC[C@@H](O)CCCCCCCCCCCCCCN1CCOCC1

IC50 [9]: 0.123 µM | IC50 [10]: 0.285 µM
Compound: O=c1ccc(-c2cc(C(F)(F)F)c(N3CCOCC3)nn2)n[nH]1
IC50 [8]: 0.178 µM
